# Laboratory results taken from PubChem BioAssay (NCI).
#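 Grown in 96-well plates, cells were treated for 48 hours with each compound at five concentrations. Insufficient inhibition: endpoint recorded as highest concentration tested. GI50 is the concentration that inhibits growth by half. TGI denotes the concentration required for complete inhibition of growth.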
# Tests used:
# Assay in all cases: DTP human tumour cell line panel, 48 h
# [1] = tested on: OVCAR-3 ovarian
# [2] = tested on: SNB-19 CNS
# [3] = tested on: BT-549 breast
# [4] = tested on: A498 renal
# [5] = tested on: UACC-62 melanoma
# [6] = tested on: NCI-H226 lung
# [7] = tested on: HCT-15 colon
# [8] = tested on: 786-0 renal
# [9] = tested on: SF-539 CNS
# [10] = tested on: SN12C renal
# [11] = tested on: COLO 205 colon
# [12] = tested on: SK-MEL-5 melanoma
# [13] = tested on: HCT-116 colon
# [14] = tested on: M14 melanoma
# [15] = tested on: IGROV1 ovarian
# [16] = tested on: MALME-3M melanoma
# [17] = tested on: KM12 colon
# [18] = tested on: NCI/ADR-RES ovarian
# [19] = tested on: SK-MEL-28 melanoma
# [20] = tested on: A549 NSCLC
# [21] = tested on: HCC-2998 colon
# [22] = tested on: NCI-H460 lung
# [23] = tested on: UACC-257 melanoma
# [24] = tested on: ACHN renal
# [25] = tested on: HT29 colon
# [26] = tested on: K-562 leukemia
# [27] = tested on: OVCAR-8 ovarian
# [28] = tested on: RPMI-8226 leukemia
# [29] = tested on: OVCAR-5 ovarian
# [30] = tested on: CCRF-CEM leukemia
# [31] = tested on: HS 578T breast
# [32] = tested on: HL-60(TB) leukemia
# [33] = tested on: SF-295 CNS
# [34] = tested on: MDA-MB-231 breast
# [35] = tested on: SK-OV-3 ovarian
# [36] = tested on: OVCAR-4 ovarian
# [37] = tested on: LOX IMVI melanoma
# [38] = tested on: HOP-92 NSCLC
# [39] = tested on: TK-10 renal
# [40] = tested on: MDA-MB-435
# [41] = tested on: SK-MEL-2 melanoma
# [42] = tested on: MOLT-4 leukemia
# [43] = tested on: EKVX NSCLC
# [44] = tested on: PC-3 prostate
# [45] = tested on: U251 CNS
# [46] = tested on: NCI-H23 lung
# [47] = tested on: MCF7 breast
# [48] = tested on: SW-620 colon
# [49] = tested on: NCI-H522 lung
# [50] = tested on: T-47D breast
# [51] = tested on: SNB-75 CNS
# [52] = tested on: HOP-62 NSCLC
# [53] = tested on: DU-145 prostate
# [54] = tested on: SF-268 CNS
# [55] = tested on: UO-31 renal
# [56] = tested on: SR leukemia
# [57] = tested on: RXF 393 renal
smiles,measurement,setting,value
Cc1cc(N2CCOCC2)nc(N(CCCNc2ccnc3cc(Cl)ccc23)Cc2ccco2)n1,GI50,[1],1.81 µM
same,TGI,[1],4.49 µM
same,GI50,[2],3.81 µM
same,TGI,[2],15.4 µM
same,GI50,[3],2.3 µM
same,TGI,[3],7.95 µM
same,GI50,[4],2.2 µM
same,TGI,[4],6.04 µM
same,GI50,[5],3.49 µM
same,TGI,[5],12.5 µM
same,GI50,[6],12 µM
same,TGI,[6],33.9 µM
same,GI50,[7],2.37 µM
same,TGI,[7],11.6 µM
same,GI50,[8],1.58 µM
same,TGI,[8],3.17 µM
same,GI50,[9],1.95 µM
same,TGI,[9],4.02 µM
same,GI50,[10],3.35 µM
same,TGI,[10],14.6 µM
same,GI50,[11],1.71 µM
same,TGI,[11],3.72 µM
same,GI50,[12],1.82 µM
same,TGI,[12],3.65 µM
same,GI50,[13],2.2 µM
same,TGI,[13],10.5 µM
same,GI50,[14],1.86 µM
same,TGI,[14],4.22 µM
same,GI50,[15],2.18 µM
same,TGI,[15],11.3 µM
same,GI50,[16],2.47 µM
same,TGI,[16],5.69 µM
same,GI50,[17],2.7 µM
same,TGI,[17],12.8 µM
same,GI50,[18],1.95 µM
same,TGI,[18],6.66 µM
same,GI50,[19],2.29 µM
same,TGI,[19],6.66 µM
same,GI50,[20],3.77 µM
same,TGI,[20],13.6 µM
same,GI50,[21],2.97 µM
same,TGI,[21],8.18 µM
same,GI50,[22],3.28 µM
same,TGI,[22],13.7 µM
same,GI50,[23],2.73 µM
same,TGI,[23],7.33 µM
same,GI50,[24],4.09 µM
same,TGI,[24],15.8 µM
same,GI50,[25],1.83 µM
same,TGI,[25],8.57 µM
same,GI50,[26],1.33 µM
same,TGI,[26],11.7 µM
same,GI50,[27],3.15 µM
same,TGI,[27],12.1 µM
same,GI50,[28],2.13 µM
same,TGI,[28],6.33 µM
same,GI50,[29],4.23 µM
same,TGI,[29],19.3 µM
same,GI50,[30],2.67 µM
same,TGI,[30],18.3 µM
same,GI50,[31],4.03 µM
same,TGI,[31],25.7 µM
same,GI50,[32],1.87 µM
same,TGI,[32],4.55 µM
same,GI50,[33],1.67 µM
same,TGI,[33],6.23 µM
same,GI50,[34],3.2 µM
same,TGI,[34],13.4 µM
same,GI50,[35],2.84 µM
same,TGI,[35],10.7 µM
same,GI50,[36],3.07 µM
same,TGI,[36],15.2 µM
same,GI50,[37],1.58 µM
same,TGI,[37],3.81 µM
same,GI50,[38],1.56 µM
same,TGI,[38],7.77 µM
same,GI50,[39],3.3 µM
same,TGI,[39],12.3 µM
same,GI50,[40],0.858 µM
same,TGI,[40],6.41 µM
same,GI50,[41],2.52 µM
same,TGI,[41],6.79 µM
same,GI50,[42],3.02 µM
same,TGI,[42],13.1 µM
same,GI50,[43],3.73 µM
same,TGI,[43],16.7 µM
same,GI50,[44],3.03 µM
same,TGI,[44],12.9 µM
same,GI50,[45],3.15 µM
same,TGI,[45],10.6 µM
same,GI50,[46],2.76 µM
same,TGI,[46],12.7 µM
same,GI50,[47],2.42 µM
same,TGI,[47],12.9 µM
same,GI50,[48],2.73 µM
same,TGI,[48],11.5 µM
same,GI50,[49],2.69 µM
same,TGI,[49],10.9 µM
same,GI50,[50],2.06 µM
same,TGI,[50],7.26 µM
same,GI50,[51],2.29 µM
same,TGI,[51],9.78 µM
same,GI50,[52],1.73 µM
same,TGI,[52],6 µM
same,GI50,[53],3.23 µM
same,TGI,[53],14.2 µM
same,GI50,[54],3.43 µM
same,TGI,[54],16.1 µM
same,GI50,[55],1.61 µM
same,TGI,[55],6.77 µM
same,GI50,[56],1.42 µM
same,TGI,[56],5.28 µM
same,GI50,[57],1.69 µM
same,TGI,[57],4.43 µM
